# Assay results from patent US20250144131A1, “POLYSACCHARIDE COMPOUND WITH A DEFINED MOLECULAR STRUCTURE FOR THE TREATMENT OF PULMONARY FIBROSIS” (SHENZHEN YANDAI INVESTMENT CO., LTD, priority 2023, published 2025).
# Marks after values point to notes of the source that are not given here.
# Legend:
# [1] = Mortality and body weight of orthotopic H22-bearing mice; details: Kanglaite soft capsule 1404 mg/kg
# Excerpt: Liver cancer (H22) cells, labeled with Luc fluorescent marker at a concentration of 1×10^7 cells/mL, were initially inoculated into the peritoneal cavity of 8 male C57 mice. After the development of ascites, the ascitic fluid was aseptically extracted, washed with HBSS buffer, centrifuged to discard the supernatant, and stained with Trypan Blue, and cells in the ascitic fluid were counted under a microscope. The cell concentration was adjusted to […] with HBSS buffer and inoculated into the right hepatic region of 51 male C57 mice, at a volume of 10 μL per mouse, to prepare the orthotopic tumor-bearing mice. One week later, the liver tumor formation in mice was detected using a small animal in vivo imaging system. Based on tumor size, the mice were randomized into groups: model control group, cisplatin group (4 mg/kg), Kanglaite soft capsule group (1,404 mg/kg), cisplatin+Kanglaite soft capsule group (4+1,404 mg/kg), cisplatin+GLP-4 low-dose group (4+130 mg/kg), and cisplatin+GLP-4 high-dose group (4+1,170 mg/kg), with 6 mice per group. An additional 6 mice served as the normal control group. The normal control group and the model control group were administered pure water by oral gavage. The chemotherapy group received intraperitoneal injections of cisplatin, and the other groups were administered their respective drug solutions by oral gavage (20 mL/kg) or intraperitoneal injection (10 mL/kg), once daily for 14 consecutive days. After the last dose, blood was collected from the orbital plexus to test blood WBC, RBC, liver and kidney function indicators (ALT, AST, BUN, CRE), and CD3^+/CD4^+, CD3^+/CD8^+ ratios. The spleen, thymus, and tumors were weighed to calculate organ coefficients.
# Animal survival and general condition: Weight was recorded weekly, along with any deaths among the animals.
# [2] = tested on: 4T1 breast cancer cells; assay: Antitumor effect in 4T1 breast tumor-bearing mice (tumor volume, relative tumor growth inhibition rate, tumor index, tumor growth inhibition rate); assay type: in vivo, BALB/c mice
# Procedure: (§1) Longest and shortest diameters of tumors were measured every three days to calculate tumor volume, and mouse weights were recorded every three days. At the end of the experiment, tumors, spleens, and thymuses were harvested and weighed to calculate tumor, spleen, and thymus indices. […] Where TRTV is the relative tumor volume in the experimental group, and CRTV is the relative tumor volume in the model control group. Relative tumor volume (RTV)=Vt/V0, where Vt is the tumor volume on day t of dosing, and V0 is the tumor volume at the time of grouping. Evaluation criteria: […] Where T represents the average tumor weight in the treatment group, and C represents the average tumor weight in the model control group. Evaluation criteria: […]
# [3] = tested on: LLC tumors; assay: Histopathology (H&E) of tumor, spleen, stomach and kidney in LLC-bearing mice; assay type: in vivo, C57 mice; details: cisplatin 4, Kanglaite 1404, GLP-4 low-dose 130 mg/kg
# Excerpt: Histopathology examination: After the last dose, tissues from tumors, spleens, stomachs, and kidneys were collected for H&E staining to observe histopathological changes.
# [4] = tested on: bone marrow cells; design: species or system C57 mice; details: mouse, in vivo, 130 mg/kg
# Procedure: LLC cells in logarithmic growth phase at 1×10^7/mL were inoculated at 0.2 mL into the right axilla of 10 purchased normal male C57 mice. Tumor growth was monitored, and tumor-bearing mice were prepared. Once the tumor volume in tumor-bearing mice exceeded 200 mm^3, the tumor tissue was aseptically harvested to prepare a tissue cell suspension. This was mixed at a 1:1 (V:V) ratio with culture medium to create a tumor tissue homogenate. This homogenate was injected into the right axilla of 60 male C57 mice at 0.2 mL per mouse. When the tumor volume in these tumor-bearing mice exceeded 100 mm^3, mice with well-grown tumors without ulceration were selected and randomized into groups based on tumor volume as follows: model control group, cisplatin group (4 mg/kg), Kanglaite soft capsule group (1,404 mg/kg), cisplatin+Kanglaite soft capsule group (4+1,404 mg/kg), cisplatin+GLP-4 low-dose group (4+130 mg/kg), and cisplatin+GLP-4 high-dose group (4+1,170 mg/kg), with 8 mice per group. Additionally, 8 mice were selected as a normal control group. The cisplatin group received intraperitoneal injections of cisplatin, and the other groups were administered their respective drug solutions by gavage (20 mL/kg) or intraperitoneal injection (10 mL/kg), once daily for 27 consecutive days. After the last dose, blood was collected from the orbital plexus to test blood WBC, RBC, liver and kidney function indicators (ALT, AST, BUN, CRE), and CD3^+, CD4^+, and CD8^+ levels. Bone marrow smears were examined, and spleens, thymuses, and tumors were weighed. Histopathological examinations were conducted on the tumor, spleen, stomach, and kidneys.
# [5] = tested on: H22 hepatoma solid tumors; assay: Antitumor effect in H22-bearing mice (tumor volume, relative tumor growth inhibition rate, tumor index, tumor growth inhibition rate); assay type: in vivo, C57 mice
# Procedure: as §1
# [6] = tested on: CD4+ and CD8+ lymphocyte subtypes; assay: Blood CD3+/CD4+ and CD3+/CD8+ ratios by flow cytometry in orthotopic H22-bearing mice; assay type: in vivo, C57 mice; details: cisplatin 4 mg/kg, Kanglaite soft capsule 1404 mg/kg
# Procedure: CD4^+ and CD8^+ content measurement: After the last dose, lymphocyte subtypes CD3^+/CD4^+ and CD3^+/CD8^+ in the blood were measured using flow cytometry.
structure (smiles),measurement,setting,value
"N.N.[Cl][Pt][Cl] [Cisplatin, cisplatin]",Number of deaths,"[1]; 6 per group, cisplatin 4 mg/kg",3
same,Number of surviving animals,"[1]; 6 per group, cisplatin 4 mg/kg",3
same,Weight,"[1]; W0, cisplatin 4 mg/kg",18.5 ± 1.3 g
same,Weight,"[1]; W1, cisplatin 4 mg/kg",16.9 ± 1.8 ^ g
same,Weight,"[1]; W2, cisplatin 4 mg/kg",15.1 ± 1.6 g
same,Mortality rate,[1]; cisplatin 4 mg/kg,50.0%
same,Tumor volume,"[2]; D0, cisplatin 4 mg/kg",225.3 ± 65.4 mm^3
same,Relative tumor growth inhibition rate (compared to model control group),"[2]; D3, cisplatin 4 mg/kg",17.2%
same,Relative tumor growth inhibition rate (compared to model control group),"[2]; D6, cisplatin 4 mg/kg",43.5* %
same,Relative tumor growth inhibition rate compared to the model control group,"[2]; D6 to D25, cisplatin 4, GLP-4 low-dose 130 mg/kg",over 40%
same,Relative tumor growth inhibition rate (compared to model control group),"[2]; D9, cisplatin 4 mg/kg",49.1* %
same,Relative tumor growth inhibition rate (compared to model control group),"[2]; D12, cisplatin 4 mg/kg",55.7* %
same,Relative tumor growth inhibition rate (compared to model control group),"[2]; D15, cisplatin 4 mg/kg",56.9* %
same,Relative tumor growth inhibition rate (compared to model control group),"[2]; D19, cisplatin 4 mg/kg",48.8* %
same,Relative tumor growth inhibition rate (compared to model control group),"[2]; D22, cisplatin 4 mg/kg",44.1* %
same,Relative tumor growth inhibition rate (compared to model control group),"[2]; D25, cisplatin 4 mg/kg",42.1* %
same,Tumor volume,"[2]; D25, cisplatin 4 mg/kg",2026.4 ± 707^ mm^3
same,Tumor growth inhibition rate (%) vs. the model control group,[2]; cisplatin 4 mg/kg,29.6%
same,Tumor index,[2]; cisplatin 4 mg/kg,11.5 ± 3.3%
same,Peak relative tumor growth inhibition rate compared to the model control group,"[2]; cisplatin 4, GLP-4 low-dose 130 mg/kg",56.9%
same,Tumor growth inhibition rate compared to the model control group,"[2]; tumor weight, cisplatin 4, GLP-4 low-dose 130 mg/kg",29.6%
same,Tumor histopathology,[3],"large areas of necrosis and hemorrhage were visible at the tumor center, with abundant tumor cells"
same,Lymphatic system,[4],15.75 ± 3.44
same,Mononuclear cell system,[4],2.88 ± 0.55
same,Myeloid/erythroid ratio,[4],3.68 ± 1.68
same,Other cells,[4],2.50 ± 2.01
same,Red cell system,[4],22.75 ± 5.67
same,Relative tumor growth inhibition rate (compared to model control group),"[5]; D3, cisplatin 3, GLP-4 low-dose 50 mg/kg",32.9%
same,Relative tumor growth inhibition rate (compared to model control group),"[5]; D6, cisplatin 3, GLP-4 low-dose 50 mg/kg",39.7%
same,Relative tumor growth inhibition rate (compared to model control group),"[5]; D9, cisplatin 3, GLP-4 low-dose 50 mg/kg, 50 mg/kg",66.5^+ %
same,Relative tumor growth inhibition rate (compared to model control group),"[5]; D9, cisplatin 3, GLP-4 low-dose 50 mg/kg, listed as cisplatin, 50 mg/kg",66.5%
same,Relative tumor growth inhibition rate (compared to model control group),"[5]; D12, cisplatin 3, GLP-4 low-dose 50 mg/kg, 50 mg/kg",70.6^+ %
same,Relative tumor growth inhibition rate (compared to model control group),"[5]; D12, cisplatin 3, GLP-4 low-dose 50 mg/kg, listed as cisplatin, 50 mg/kg",70.6%
same,Relative tumor growth inhibition rate (compared to model control group),"[5]; D15, cisplatin 3, GLP-4 low-dose 50 mg/kg, 50 mg/kg",69.1^+ %
same,Relative tumor growth inhibition rate (compared to model control group),"[5]; D15, cisplatin 3, GLP-4 low-dose 50 mg/kg, listed as cisplatin, 50 mg/kg",69.1%
same,Relative tumor growth inhibition rate (compared to model control group),"[5]; D18, cisplatin 3, GLP-4 low-dose 50 mg/kg, 50 mg/kg",81.3^+ %
same,Relative tumor growth inhibition rate (compared to model control group),"[5]; D18, cisplatin 3, GLP-4 low-dose 50 mg/kg, listed as cisplatin, 50 mg/kg",81.3%
same,Relative tumor growth inhibition rate (compared to model control group),"[5]; D21, cisplatin 3, GLP-4 low-dose 50 mg/kg, 50 mg/kg",83.9^+ %
same,Relative tumor growth inhibition rate (compared to model control group),"[5]; D21, cisplatin 3, GLP-4 low-dose 50 mg/kg, listed as cisplatin, 50 mg/kg",83.9%
same,Relative tumor growth inhibition rate (compared to model control group),"[5]; D24, cisplatin 3, GLP-4 low-dose 50 mg/kg, 50 mg/kg",85.3^+ %
same,Relative tumor growth inhibition rate (compared to model control group),"[5]; D24, cisplatin 3, GLP-4 low-dose 50 mg/kg, listed as cisplatin, 50 mg/kg",85.3%
same,Relative tumor growth inhibition rate (compared to model control group),"[5]; D27, cisplatin 3, GLP-4 low-dose 50 mg/kg, 50 mg/kg",84.3^+ %
same,Relative tumor growth inhibition rate (compared to model control group),"[5]; D27, cisplatin 3, GLP-4 low-dose 50 mg/kg, listed as cisplatin, 50 mg/kg",84.3%
same,Tumor growth inhibition rate (%) vs. the model control group,[5]; cisplatin group,88.7%
same,Tumor index,[5]; cisplatin group,2.8 ± 2.1^+ %
same,Tumor growth inhibition rate compared to the model control group,"[5]; tumor weight, cisplatin 3, GLP-4 low-dose 50 mg/kg",88.7%
same,CD3^+/CD4^+,[6],4.26 ± 0.04
same,CD3^+/CD8^+,[6],4.21 ± 0.81
